Patent US20140173780A1, “SOYBEAN TRAN[…] EFFICIENT AND HIGH-[…] PRODUCTION” (DOW AGROSCIENCES LLC, priority 2012, published 2014)

System: un-transformed soybean explants
Experiment: Glyphosate dose response study on un-transformed soybean explants in tissue culture media
Format: in vivo, soybean (Glycine max)
Conditions: for Number of Explants at Various Stages of Selection: SE-1 / Number of Explants at Various Stages of Selection: SE-2 / Number of Explants at Various Stages of Selection: SI-2 / Number of Explants at Various Stages of Selection: End of SE-2: 49 explants at CC; for Number of Explants at Various Stages of Selection: End of SE-2: six weeks on selection
Procedure: Initially, a dose response study was completed. To test the effect of glyphosate on the explants, glyphosate was added to media used from the shoot initiation stage and onwards. Glyphosate was tested from the range of 0.025-0.2 mM. Incorporation of glyphosate in tissue culture media within this concentration range has been reported in soybean (Clemente et al., 2000; Hinchee et al., 1996; Martinell et al., 2006; Martinell et al., 1999; Martinell et al., 2002), tobacco (Singer et al., 1985), cotton (Zhao et al., 2006) and wheat (Hu et al., 2003). Five concentrations of glyphosate were tested for culturing of un-transformed soybean explants. The concentrations incorporated into the SI-2 media were 0.025 mM, 0.05 mM, 0.075 mM, 0.1 mM and 0.2 mM. The un-transformed soybean explants were maintained on the same rate of glyphosate selection for all the successive stages of subculture from SI-2 media to the completion of the tissue culturing protocol. The numbers of healthy explants were counted at each subculture stage. Dead explants were discarded and healthy explants were subcultured further onto appropriate media.
Growth of the explants was also retarded on glyphosate containing media. Next the cotyledons were removed and the explants were subcultured from SI-2 to SE media. At the end of another two weeks of selection on SE media, significant differences in the growth of the explants were observed when the explants were exposed to different levels of glyphosate. The retarded growth of the explants was proportionate to the increasing dose of glyphosate. Similarly the number of dead explants was also proportional to the increasing dose of glyphosate. The number of dead explants increased as the dose of glyphosate was increased. […] Subsequently, three different concentrations of glyphosate (e.g., 0.025 mM, 0.05 mM and 0.1 mM) were incorporated into the selection schemes for Agrobacterium-mediated transformation of the soybean split-seed explants comprising a portion of an embryonic axis.

[1] = 0.025 mM glyphosate in media from SI-2 onwards
[2] = 0.05 mM glyphosate in media from SI-2 onwards
[3] = 0.075 mM glyphosate in media from SI-2 onwards
[4] = 0.1 mM glyphosate in media from SI-2 onwards
[5] = 0.2 mM glyphosate in media from SI-2 onwards

Question: `O=C(O)CNCP(=O)(O)O` [Glyphosate, glyphosate] was tested. Which “Number of Explants at Various Stages of Selection: SE-1” value (“Number … of Selection: SE-1” below) [1] did it give?
Answer: 41

Question: What about the “Number of Explants at Various Stages of Selection: SE-2” value (“Number … of Selection: SE-2” for short) [1] of the same compound?
Answer: 38

Question: What about the “Number of Explants at Various Stages of Selection: SI-2” value (“Number … of Selection: SI-2” for short) [1] of the same compound?
Answer: 43

Question: And the “Number of Explants at Various Stages of Selection: End of SE-2” value (from here on “Number … of Selection: End of SE-2”) [1]?
Answer: none of the soybean explants were able to survive

Question: And the “Number … of Selection: SE-1” value [2]?
Answer: 45

Question: And the “Number … of Selection: SE-2” value [2]?
Answer: 38

Question: And the “Number … of Selection: SI-2” value [2]?
Answer: 45

Question: And the “Number … of Selection: End of SE-2” value [2]?
Answer: 0

Question: What about the “Number … of Selection: SE-1” value [3] of the same compound?
Answer: 45

Question: And the “Number … of Selection: SE-2” value [3]?
Answer: 21

Question: And the “Number … of Selection: SI-2” value [3]?
Answer: 47

Question: And the “Number … of Selection: End of SE-2” value [3]?
Answer: 0

Question: What about the “Number … of Selection: SE-1” value [4] of the same compound?
Answer: 41

Question: And the “Number … of Selection: SE-2” value [4]?
Answer: 13

Question: What about the “Number … of Selection: SI-2” value [4] of the same compound?
Answer: 44

Question: What about the “Number … of Selection: End of SE-2” value [4] of the same compound?
Answer: 0

Question: And the “Number … of Selection: SE-1” value [5]?
Answer: 31

Question: What about the “Number … of Selection: SE-2” value [5] of the same compound?
Answer: 1

Question: What about the “Number … of Selection: SI-2” value [5] of the same compound?
Answer: 42

Question: And the “Number … of Selection: SE-2” value (0.2 mM glyphosate in media from SI-2 onwards, listed as glyphosate)?
Answer: only one explants survived

Question: And the “Number … of Selection: End of SE-2” value [5]?
Answer: 0

Question: And the “yellowing of the cotyledons” value (end of culturing on SI-2 media (about 2 weeks), 0.025-0.2 mM glyphosate, extent proportional to dose)?
Answer: explants showed yellowing of the cotyledons

Question: And the “growth of the explants” value (glyphosate containing media, 0.025-0.2 mM, proportionate to dose)?
Answer: retarded
